Data: patent US10907168B2, “Jasmonic acid pathway activator” (MEDICAGO INC., priority 2015, dated 2021)

Tests used:
Assay type in all cases: in vivo, Nicotiana benthamiana
[1] = test system: RuBisCO large and small subunit; experiment: RuBisCO large and small subunit levels, immunodetection and densitometry; conditions: for depletion of RuBisCO large and small subunit pools, less than in controls: uninfiltrated leaves, seven days post-treatment
Protocol: FIGS. 1a-1d show total soluble proteins (TSP), 1-D proteome profile and RuBisCO subunit levels in agroinfiltrated and control N. benthamiana leaves treated with the stress elicitor MeJA 24 h before infection. […] FIGS. 1c and 1d show relative amounts of RuBisCO large (RbcL; FIG. 1c) and small (RbsS; FIG. 1d) subunits in MeJA-treated leaves as determined by densitometry following immunodetection with appropriate antibodies. Protein signals on the immunoblots were quantified using the Phoretix 2-D Expression software v. 2005 (NonLinear USA, Durham N.C., U.S.A.) after scanning nitrocellulose membranes with a Microtek ScanMaker II digitalizer (Microtek Laboratory, Torrance Calif., U.S.A.). Data are expressed as relative levels compared to non-treated controls assigned an arbitrary level of 1.0. Each bar on panels (a) and (c) is the mean of three independent (leaf replicate) values±SE. Infiltrated leaves were transfected with A. tumefaciens cells 24 h post-MeJA treatment. All plant samples were harvested seven days post-MeJA treatment (i.e. six days post-agroinfiltration for the transfected plants).
Forty-two day-old N. benthamiana plants grown in greenhouse were used for the experiments. Each plant was sprayed evenly with 50 ml of 0.5 mM, 1 mM or 2 mM MeJA in water containing 0.1% (v/v) Triton X-100 (Sigma-Aldrich, Mississauga ON, Canada), or with 50 ml of 1 mM arachidonic acid (Girard et al., 2007) in the same solvent, and transferred for seven days in a Conviron growth chamber (Conviron, Winnipeg MB, Canada). Plants sprayed with 50 ml of 0.1% (v/v) Triton X-100 in water were used in parallel as negative controls to avoid confounding effects due to experimental conditions. Two or three 1-cm^2 leaf discs were harvested from the third main stem leaf (see Robert et al., 2013) after seven days, as source material for protein and RNA extraction. The leaf samples were frozen immediately in liquid nitrogen and stored at −80° C. until protein or RNA extraction. Three to five biological (plant) replicates were used for each treatment, to allow for statistical treatment of the data. […]

N. benthamiana leaves = experiment: Leaf protein profile, Coomassie blue-stained SDS-PAGE and MS/MS identification; conditions: uninfiltrated leaves; ~30-kDa, ~25-kDa and ~6-kDa mass ranges; seven days post-treatment
Protocol: Forty-two day-old N. benthamiana plants grown in greenhouse were used for the experiments. Each plant was sprayed evenly with 50 ml of 0.5 mM, 1 mM or 2 mM MeJA in water containing 0.1% (v/v) Triton X-100 (Sigma-Aldrich, Mississauga ON, Canada), or with 50 ml of 1 mM arachidonic acid (Girard et al., 2007) in the same solvent, and transferred for seven days in a Conviron growth chamber (Conviron, Winnipeg MB, Canada). Plants sprayed with 50 ml of 0.1% (v/v) Triton X-100 in water were used in parallel as negative controls to avoid confounding effects due to experimental conditions. […]
Whole leaf proteins were extracted from three 1-cm^2 leaf discs in 400 μl of ice-cold 50 mM Tris-HCl, pH 7.5, containing 150 mM NaCl, by disrupting the leaf samples with tungsten carbide beads (Qiagen, Mississauga ON, Canada) in a Mini-Beadbeater apparatus (BioSpec, Bartlesville Okla., USA). […] RuBisCO small subunit was detected using polyclonal IgG raised in rabbit against a synthetic small subunit peptide (Agrisera, Vännäs, Sweden) and alkaline phosphatase-conjugated goat anti-rabbit IgG as secondary antibodies (Sigma-Aldrich). RuBisCO large subunit was detected using polyclonal IgG raised in hen against a synthetic large subunit peptide (Agrisera) and alkaline phosphatase-conjugated goat anti-chicken IgG as secondary antibodies (Sigma-Aldrich). […]

[2] = test system: cathepsin D/E-like A1 Asp proteases; experiment: Protease assay in leaf crude extracts, MOCAc substrate; conditions: seven days post-treatment

SMILES: CC/C=C\C[C@H]1C(=O)CC[C@@H]1CC(=O)OC [MeJA, methyl jasmonate]
- depletion of RuBisCO large and small subunit pools, less than in controls ([1]; 0.5 mM dose): ~40%
- depletion of RuBisCO large and small subunit pools, less than in controls ([1]; 2 mM dose): more than 90%
- RuBisCO large and small subunits, share of original content relative to untreated plants ([1]; agroinfiltrated leaves (empty vector, 24 h post-treatment), 1 or 2 mM, six days post-infection): less than 50%
- up-regulation of proteins on Coomassie blue-stained gels (N. benthamiana leaves): up-regulation of several proteins
- cathepsin D/E-like activity ([2]; agroinfiltrated leaves): also observed in agroinfiltrated leaves
- cathepsin D/E-like activity ([2]; uninfiltrated plants, P<0.001): dose-dependent decrease
